Here are results for seven molecules from patent publication US20140031278A1, “Novel Glucagon Analogues” (NOVO NORDISK A/S, priority 2011, published 2014).

*1 amine or outer side, *2 acyl side, *3 side chain or, on linkers, in order; H or OH if unused. Where a SMILES comes first, the peptide text is derived from it. Side-chain parts run from the residue outwards. The star is where a group is joined. γGlu = O=C(O)[C@H](CCC(=O)[*:2])N[*:1]; Pentanoyl = CCCCC(=O)*

For the test, the target named is T1, glucagon receptor (Homo sapiens, UniProt P47871).
T1 construct: expressed in transfected cells
T1 sequence (P47871 26-477): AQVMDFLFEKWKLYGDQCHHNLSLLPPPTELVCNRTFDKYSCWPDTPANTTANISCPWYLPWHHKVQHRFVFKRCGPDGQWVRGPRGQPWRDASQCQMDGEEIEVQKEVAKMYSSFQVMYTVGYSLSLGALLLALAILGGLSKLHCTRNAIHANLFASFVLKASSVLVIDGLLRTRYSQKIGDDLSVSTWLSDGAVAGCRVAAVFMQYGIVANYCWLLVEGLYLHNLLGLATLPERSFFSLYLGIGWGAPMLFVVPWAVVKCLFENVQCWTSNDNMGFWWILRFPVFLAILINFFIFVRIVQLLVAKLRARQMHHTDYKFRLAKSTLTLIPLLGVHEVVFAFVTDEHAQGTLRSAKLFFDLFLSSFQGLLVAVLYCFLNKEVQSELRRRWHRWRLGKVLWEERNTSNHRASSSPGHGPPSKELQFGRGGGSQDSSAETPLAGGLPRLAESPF
As to the kind of experiment: Assay (I) Glucagon activity (cAMP biosensor, FLIPR). It counts as cell-based. The note with it: HEK-293 cells with cloned glucagon receptor and cAMP biosensor; end point after 6 minutes. The gist of the method: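 HEK-293 cells expressing glucagon receptor with membrane cAMP biosensor (ACTOne), calcium-dye loaded with probenecid and a PDE inhibitor.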
`CC(=O)N[C@@H](CCC(=O)N[C@@H](CCC(=O)N[C@@H](CCC(=O)N[C@@H](CCC(=O)NCCCC[C@H](NC(=O)[C@@H](NC(=O)[C@H](Cc1ccccc1)NC(=O)[C@H](CC(=O)O)NC(=O)[C@H](CCC(N)=O)NC(=O)[C@H](C)NC(=O)[C@H](CCCNC(=N)N)NC(=O)[C@H](CCCNC(=N)N)NC(=O)[C@H](CO)NC(=O)[C@H](CCC(=O)O)NC(=O)[C@H](CC(C)C)NC(=O)[C@H](Cc1ccc(O)cc1)NC(=O)[C@H](CCCCN)NC(=O)[C@H](CO)NC(=O)[C@H](Cc1ccc(O)cc1)NC(=O)[C@H](CC(=O)O)NC(=O)[C@H](CO)NC(=O)[C@@H](NC(=O)[C@H](Cc1ccccc1)NC(=O)[C@@H](NC(=O)CNC(=O)[C@H](CCC(N)=O)NC(=O)[C@H](CO)NC(=O)[C@@H](N)Cc1c[nH]cn1)[C@@H](C)O)[C@@H](C)O)C(C)C)C(=O)N[C@@H](Cc1c[nH]c2ccccc12)C(=O)N[C@@H](CC(C)C)C(=O)N[C@@H](CC(C)C)C(=O)N[C@@H](CO)C(=O)N[C@H](C(=O)O)[C@@H](C)O)C(=O)O)C(=O)O)C(=O)O)C(=O)O` [Example 23, N^ε24-[(4S)-4-[[(4S)-4-[[(4S)-4-[[(4S)-4-acetamido-4-carboxybutanoyl]amino]-4-carboxybutanoyl]amino]-4-carboxybutanoyl]amino]-4-carboxybutanoyl]-[Glu15,Lys24,Leu27,Ser28]-Glucagon]: the response was half-maximal at 10.5 pM (EC50).

With `CC(=O)N[C@@H](CCC(=O)N[C@@H](CCC(=O)N[C@@H](CCC(=O)N[C@@H](CCC(=O)NCCCC[C@H](NC(=O)[C@H](CC(C)C)NC(=O)[C@H](CC(C)C)NC(=O)[C@H](Cc1c[nH]c2ccccc12)NC(=O)[C@H](CCC(N)=O)NC(=O)[C@@H](NC(=O)[C@H](Cc1ccccc1)NC(=O)[C@H](CC(=O)O)NC(=O)[C@H](CCC(N)=O)NC(=O)[C@H](C)NC(=O)[C@H](CCCNC(=N)N)NC(=O)[C@H](CCCNC(=N)N)NC(=O)[C@H](CO)NC(=O)[C@H](CC(=O)O)NC(=O)[C@H](CC(C)C)NC(=O)[C@H](Cc1ccc(O)cc1)NC(=O)[C@H](CCCCN)NC(=O)[C@H](CO)NC(=O)[C@H](Cc1ccc(O)cc1)NC(=O)[C@H](CC(=O)O)NC(=O)[C@H](CO)NC(=O)[C@@H](NC(=O)[C@H](Cc1ccccc1)NC(=O)[C@@H](NC(=O)CNC(=O)[C@H](CCC(N)=O)NC(=O)[C@H](CO)NC(=O)[C@@H](N)Cc1c[nH]cn1)[C@@H](C)O)[C@@H](C)O)C(C)C)C(=O)N[C@H](C(=O)O)[C@@H](C)O)C(=O)O)C(=O)O)C(=O)O)C(=O)O` [Example 53, N^ε28-[(4S)-4-[[(4S)-4-[[(4S)-4-[[(4S)-4-acetamido-4-carboxybutanoyl]amino]-4-carboxybutanoyl]amino]-4-carboxybutanoyl]amino]-4-carboxybutanoyl]-[Leu^27,Lys^28]-Glucagon], the EC50 worked out at 7 pM.

For `CC(=O)N[C@@H](CCC(=O)N[C@@H](CCC(=O)N[C@@H](CCC(=O)N[C@@H](CCC(=O)NCCCC[C@H](NC(=O)[C@@H](NC(=O)[C@H](Cc1ccccc1)NC(=O)[C@H](CC(=O)O)NC(=O)[C@H](C)NC(=O)[C@H](C)NC(=O)[C@H](CCCNC(=N)N)NC(=O)[C@H](CCCNC(=N)N)NC(=O)[C@H](CC(C)C)NC(=O)[C@H](CC(=O)O)NC(=O)[C@H](CC(C)C)NC(=O)[C@H](Cc1ccc(O)cc1)NC(=O)[C@H](CCCCN)NC(=O)[C@H](CO)NC(=O)[C@@H](NC(=O)[C@H](CC(=O)O)NC(=O)[C@H](CO)NC(=O)[C@@H](NC(=O)[C@H](Cc1ccccc1)NC(=O)[C@@H](NC(=O)CNC(=O)[C@H](Cc1c[nH]cn1)NC(=O)[C@H](C)NC(=O)[C@@H](N)Cc1c[nH]cn1)[C@@H](C)O)[C@@H](C)O)C(C)C)C(C)C)C(=O)N[C@@H](Cc1c[nH]c2ccccc12)C(=O)N[C@@H](CC(C)C)C(=O)N[C@@H](CC(C)C)C(=O)N[C@@H](CO)C(=O)N[C@H](C(=O)O)[C@@H](C)O)C(=O)O)C(=O)O)C(=O)O)C(=O)O` [Example 62, N^ε24-[(4S)-4-[[(4S)-4-[[(4S)-4-[[(4S)-4-acetamido-4-carboxybutanoyl]amino]-4-carboxybutanoyl]amino]-4-carboxybutanoyl]amino]-4-carboxybutanoyl]-[Ala^2,His^3,Val^10,Leu^16,Ala^20,Lys^24,Leu^27,Ser^28]-Glucagon] (H-HAHGTFTSDVSKYLDLRRAADFVK([γGlu-γGlu-γGlu-γGlu-Ac])WLLST-OH), the concentration giving a half-maximal response (EC50) was 52 pM.

In turn, `CC(=O)N[C@@H](CCC(=O)N[C@@H](CCC(=O)N[C@@H](CCC(=O)N[C@@H](CCC(=O)NCCCC[C@H](NC(=O)[C@@H](NC(=O)[C@H](Cc1ccccc1)NC(=O)[C@H](CC(=O)O)NC(=O)[C@H](CCC(N)=O)NC(=O)[C@H](C)NC(=O)[C@H](CCCNC(=N)N)NC(=O)[C@H](CCCNC(=N)N)NC(=O)[C@H](CO)NC(=O)[C@H](CC(=O)O)NC(=O)[C@H](CC(C)C)NC(=O)[C@H](Cc1ccc(O)cc1)NC(=O)[C@H](CCCCN)NC(=O)[C@H](CO)NC(=O)[C@H](Cc1ccc(O)cc1)NC(=O)[C@H](CC(=O)O)NC(=O)[C@H](CO)NC(=O)[C@@H](NC(=O)[C@H](Cc1ccccc1)NC(=O)[C@@H](NC(=O)CNC(=O)[C@H](Cc1c[nH]cn1)NC(=O)[C@H](CO)NC(=O)[C@@H](N)Cc1c[nH]cn1)[C@@H](C)O)[C@@H](C)O)C(C)C)C(=O)N[C@@H](Cc1c[nH]c2ccccc12)C(=O)N[C@@H](CC(C)C)C(=O)N[C@@H](CC(C)C)C(=O)N[C@@H](CC(N)=O)C(=O)N[C@H](C(=O)O)[C@@H](C)O)C(=O)O)C(=O)O)C(=O)O)C(=O)O` [Example 19, N^ε24-[(4S)-4-[[(4S)-4-[[(4S)-4-[[(4S)-4-acetamido-4-carboxybutanoyl]amino]-4-carboxybutanoyl]amino]-4-carboxybutanoyl]amino]-4-carboxybutanoyl]-[His3,Lys24,Leu27]-Glucagon] had a concentration giving a half-maximal response (EC50) of 14.5 pM.

`CCCCC(=O)N[C@@H](CCC(=O)N[C@@H](CCC(=O)N[C@@H](CCC(=O)N[C@@H](CCC(=O)NCCCC[C@H](NC(=O)[C@@H](NC(=O)[C@H](Cc1ccccc1)NC(=O)[C@H](CC(=O)O)NC(=O)[C@H](C)NC(=O)[C@H](C)NC(=O)[C@H](CCCNC(=N)N)NC(=O)[C@H](CCCNC(=N)N)NC(=O)[C@H](CC(C)C)NC(=O)[C@H](CC(=O)O)NC(=O)[C@H](CC(C)C)NC(=O)[C@H](Cc1ccc(O)cc1)NC(=O)[C@H](CCCNC(=N)N)NC(=O)[C@H](CO)NC(=O)[C@H](Cc1ccc(O)cc1)NC(=O)[C@H](CC(=O)O)NC(=O)[C@H](CO)NC(=O)[C@@H](NC(=O)[C@H](Cc1ccccc1)NC(=O)[C@@H](NC(=O)CNC(=O)[C@H](CCC(N)=O)NC(=O)[C@H](CO)NC(=O)[C@@H](N)Cc1c[nH]cn1)[C@@H](C)O)[C@@H](C)O)C(C)C)C(=O)N[C@@H](Cc1c[nH]c2ccccc12)C(=O)N[C@@H](CC(C)C)C(=O)N[C@@H](CC(C)C)C(=O)N[C@@H](CO)C(=O)N[C@H](C(=O)O)[C@@H](C)O)C(=O)O)C(=O)O)C(=O)O)C(=O)O` [Example 67] (H-HSQGTFTSDYSRYLDLRRAADFVK([γGlu-γGlu-γGlu-γGlu-Pentanoyl])WLLST-OH) had a 50% effective concentration (EC50) of 22 pM.

Turning to `CC(=O)N[C@@H](CCC(=O)N[C@@H](CCC(=O)N[C@@H](CCC(=O)N[C@@H](CCC(=O)NCCCC[C@H](NC(=O)[C@@H](NC(=O)[C@H](Cc1ccccc1)NC(=O)[C@H](CCC(=O)O)NC(=O)[C@H](C)NC(=O)[C@H](C)NC(=O)[C@H](CCCNC(=N)N)NC(=O)[C@H](CCCNC(=N)N)NC(=O)[C@@H](NC(=O)[C@H](CC(=O)O)NC(=O)[C@H](CC(C)C)NC(=O)[C@H](Cc1ccc(O)cc1)NC(=O)[C@H](CCCCN)NC(=O)[C@H](CO)NC(=O)[C@H](Cc1ccc(O)cc1)NC(=O)[C@H](CC(=O)O)NC(=O)[C@H](CO)NC(=O)[C@@H](NC(=O)[C@H](Cc1ccccc1)NC(=O)[C@@H](NC(=O)CNC(=O)[C@H](Cc1c[nH]cn1)NC(=O)[C@H](C)NC(=O)[C@@H](N)Cc1c[nH]cn1)[C@@H](C)O)[C@@H](C)O)C(C)C)C(C)C)C(=O)N[C@@H](Cc1c[nH]c2ccccc12)C(=O)N[C@@H](CC(C)C)C(=O)N[C@@H](CC(C)C)C(=O)N[C@@H](CO)C(=O)N[C@H](C(=O)O)[C@@H](C)O)C(=O)O)C(=O)O)C(=O)O)C(=O)O` [Example 47, N^ε24-[(4S)-4-[[(4S)-4-[[(4S)-4-[[(4S)-4-acetamido-4-carboxybutanoyl]amino]-4-carboxybutanoyl]amino]-4-carboxybutanoyl]amino]-4-carboxybutanoyl]-[Ala^2,His^3,Val^16,Ala^20,Glu^21,Lys^24,Leu^27,Ser^28]-Glucagon] (H-HAHGTFTSDYSKYLDVRRAAEFVK([γGlu-γGlu-γGlu-γGlu-Ac])WLLST-OH), the 50% effective concentration (EC50) was 9 pM.

Molecule `CC(=O)N[C@@H](CCC(=O)N[C@@H](CCC(=O)N[C@@H](CCC(=O)N[C@@H](CCC(=O)NCCCC[C@H](NC(=O)[C@@H](NC(=O)[C@H](Cc1ccccc1)NC(=O)[C@H](CC(=O)O)NC(=O)[C@H](CCC(N)=O)NC(=O)[C@H](C)NC(=O)[C@H](CCCNC(=N)N)NC(=O)[C@H](CCCNC(=N)N)NC(=O)[C@H](CC(C)C)NC(=O)[C@H](CC(=O)O)NC(=O)[C@H](CC(C)C)NC(=O)[C@H](Cc1ccc(O)cc1)NC(=O)[C@H](CCCCN)NC(=O)[C@H](CO)NC(=O)[C@H](Cc1ccc(O)cc1)NC(=O)[C@H](CC(=O)O)NC(=O)[C@H](CO)NC(=O)[C@@H](NC(=O)[C@H](Cc1ccccc1)NC(=O)[C@@H](NC(=O)CNC(=O)[C@H](CCC(N)=O)NC(=O)[C@H](CO)NC(=O)[C@@H](N)Cc1c[nH]cn1)[C@@H](C)O)[C@@H](C)O)C(C)C)C(=O)N[C@@H](Cc1c[nH]c2ccccc12)C(=O)N[C@@H](CC(C)C)C(=O)N[C@@H](CC(C)C)C(=O)N[C@@H](CO)C(=O)N[C@H](C(=O)O)[C@@H](C)O)C(=O)O)C(=O)O)C(=O)O)C(=O)O` [Example 38, N^ε24-[(4S)-4-[[(4S)-4-[[(4S)-4-[[(4S)-4-acetamido-4-carboxybutanoyl]amino]-4-carboxybutanoyl]amino]-4-carboxybutanoyl]amino]-4-carboxybutanoyl]-[Leu16,Lys24,Leu27,Ser28]-Glucagon] displayed an EC50 of 2.9 pM.
